Literature values as cited in patent US20220287302A1, “COMPOSITIONS FOR PATHOGEN IN[…] PATHOGEN REDUCTION MANAGEMENT” (priority 2020, published 2022).

O=c1c(O)c(O)c1=O [Squaric acid, 3,4-dihydroxy-3-cyclobutene-1,2 dione]
pKa for the first proton (first proton): 1.5
pKa for the second proton (second proton): 3.4
